Laboratory results from US7842324B2 (Senomyx, Inc., priority 2005, dated 2010).
pEC50: −log10 of the molar value.

Target: T1, hT1R2/hT1R3 sweet receptor expressed in HEK293 cell line (Homo sapiens, UniProt Q7RTX0+Q8TE23)
T1 construct: expressed in transfected cells; host or cells: HEK293 derivative stably expressing Gα15 and hT1R2/hT1R3, clone S-9
T1 sequence (Q8TE23 20-839): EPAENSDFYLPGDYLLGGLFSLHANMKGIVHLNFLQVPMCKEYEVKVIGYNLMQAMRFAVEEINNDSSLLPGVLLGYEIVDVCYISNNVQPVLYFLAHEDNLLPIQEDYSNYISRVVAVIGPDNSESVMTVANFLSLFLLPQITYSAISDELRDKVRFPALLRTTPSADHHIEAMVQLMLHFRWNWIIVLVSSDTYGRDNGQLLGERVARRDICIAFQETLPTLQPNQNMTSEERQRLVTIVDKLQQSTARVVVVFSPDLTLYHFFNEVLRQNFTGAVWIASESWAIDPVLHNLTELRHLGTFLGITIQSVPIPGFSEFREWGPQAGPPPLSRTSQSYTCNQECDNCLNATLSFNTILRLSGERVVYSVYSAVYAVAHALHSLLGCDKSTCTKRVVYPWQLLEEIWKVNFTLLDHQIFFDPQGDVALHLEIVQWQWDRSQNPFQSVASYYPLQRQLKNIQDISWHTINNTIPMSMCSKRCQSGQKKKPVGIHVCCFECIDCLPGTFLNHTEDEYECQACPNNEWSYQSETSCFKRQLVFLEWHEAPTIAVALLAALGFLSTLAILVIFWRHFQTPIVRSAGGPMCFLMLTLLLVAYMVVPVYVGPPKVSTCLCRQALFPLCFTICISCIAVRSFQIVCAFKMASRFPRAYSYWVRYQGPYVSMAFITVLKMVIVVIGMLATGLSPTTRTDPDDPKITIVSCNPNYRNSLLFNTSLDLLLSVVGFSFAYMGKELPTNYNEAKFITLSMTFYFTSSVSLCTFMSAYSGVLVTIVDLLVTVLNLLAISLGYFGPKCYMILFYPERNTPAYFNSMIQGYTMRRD
T1 sequence (Q7RTX0 21-852): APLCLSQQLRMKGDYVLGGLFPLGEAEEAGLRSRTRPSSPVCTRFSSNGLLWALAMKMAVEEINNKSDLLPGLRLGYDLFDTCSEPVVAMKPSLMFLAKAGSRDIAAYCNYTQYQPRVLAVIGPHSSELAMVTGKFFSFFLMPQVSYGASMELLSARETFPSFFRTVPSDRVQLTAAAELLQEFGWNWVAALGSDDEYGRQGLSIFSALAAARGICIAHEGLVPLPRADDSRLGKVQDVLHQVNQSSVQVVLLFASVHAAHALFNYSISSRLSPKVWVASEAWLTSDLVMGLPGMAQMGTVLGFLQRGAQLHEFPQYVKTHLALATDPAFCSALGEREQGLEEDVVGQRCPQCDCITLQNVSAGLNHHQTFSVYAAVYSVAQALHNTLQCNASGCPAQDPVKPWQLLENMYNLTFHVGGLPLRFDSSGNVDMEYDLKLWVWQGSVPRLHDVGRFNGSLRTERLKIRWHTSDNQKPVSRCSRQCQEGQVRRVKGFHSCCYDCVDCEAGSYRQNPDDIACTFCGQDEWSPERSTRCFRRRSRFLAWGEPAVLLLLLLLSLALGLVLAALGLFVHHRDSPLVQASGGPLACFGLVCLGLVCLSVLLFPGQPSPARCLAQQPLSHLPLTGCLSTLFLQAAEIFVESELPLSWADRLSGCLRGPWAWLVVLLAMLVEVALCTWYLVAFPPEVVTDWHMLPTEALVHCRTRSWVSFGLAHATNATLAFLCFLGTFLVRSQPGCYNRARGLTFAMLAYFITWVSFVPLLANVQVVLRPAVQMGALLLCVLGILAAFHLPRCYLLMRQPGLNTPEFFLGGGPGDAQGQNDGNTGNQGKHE
Test: In vitro hT1R2/hT1R3-HEK293 taste receptor activation assay (FLIPR)
Type: cell-based
Settings: read-out: EC50 for activation of a hT1R2/hT1R3 sweet receptor expressed in HEK293 cell line
Summary of the method: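 HEK293 cells stably expressing Gα15 and hT1R2/hT1R3 were loaded with Fluo-3AM (4 μM, 1 h, room temperature), then stimulated at room temperature in D-PBS. Peak fluorescence (ex 480/em 535 nm) was normalized to basal. Dose-responses were run in duplicate over 60 nM–30 μM, normalized to 400 mM D-fructose, and EC50 fitted by free-Hill non-linear regression.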

pEC50: 6.82
Compound: CC(C)CNC(=O)C(C)(C)c1ccc(-c2cncc(C#N)c2)cc1 [Compound 23, 2-(4-(5-cyanopyridin-3-yl)phenyl)-N-isobutyl-2-methylpropanamide]
